Experimental data as given in patent US12662489B2 (Sitryx Therapeutics Limited, priority 2023, dated 2026).

Tests used:
[1] = molecular target: T1, MTHFD1 recombinant human enzyme (Homo sapiens, UniProt P11586); experiment: MTHFD1 inhibition assay (NAD(P)H-Glo luminescence); settings: MTHFD1 IC50, recombinant human enzyme 200 nM, NADP, band
T1 sequence (P11586 2-291 limits assumed): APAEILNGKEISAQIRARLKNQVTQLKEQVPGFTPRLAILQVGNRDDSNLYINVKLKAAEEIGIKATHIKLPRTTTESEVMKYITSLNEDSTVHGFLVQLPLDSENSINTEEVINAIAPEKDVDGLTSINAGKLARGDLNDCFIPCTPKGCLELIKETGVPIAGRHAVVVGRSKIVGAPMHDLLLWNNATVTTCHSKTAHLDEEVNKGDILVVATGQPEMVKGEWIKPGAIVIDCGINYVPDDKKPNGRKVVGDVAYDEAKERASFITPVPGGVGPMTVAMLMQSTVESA

[2] = molecular target: T2, MTHFD2 recombinant human enzyme (Homo sapiens, UniProt P13995); experiment: MTHFD2 inhibition assay (NAD(P)H-Glo luminescence); settings: for MTHFD1/MTHFD2 IC50 ratio: selectivity of MTHFD2 inhibition over MTHFD1, band
T2 sequence (P13995 36-350): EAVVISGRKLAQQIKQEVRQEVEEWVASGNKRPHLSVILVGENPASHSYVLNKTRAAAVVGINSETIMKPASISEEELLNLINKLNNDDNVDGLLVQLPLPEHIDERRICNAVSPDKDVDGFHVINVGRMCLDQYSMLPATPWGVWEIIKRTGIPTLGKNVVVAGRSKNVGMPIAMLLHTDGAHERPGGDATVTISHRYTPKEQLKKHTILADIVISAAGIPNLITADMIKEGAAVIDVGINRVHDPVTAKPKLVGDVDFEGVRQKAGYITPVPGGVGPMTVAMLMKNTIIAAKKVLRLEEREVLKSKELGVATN

Row | IC50 [1] [nM] | IC50 [2] [nM] | MTHFD1/MTHFD2 IC50 ratio [2] | SMILES
1 | 1 to 10 | 10 to 100 | F (<3) | COC[C@H]1CN(c2ccc3c4c(c(=O)oc3c2C)CN(C(=O)c2ccc(C(=O)NS(=O)(=O)N(C)C)c(OC3CCCC3)c2F)CC4)CCN1C [Example 5, (R)-2-(cyclopentyloxy)-N-(N,N-dimethylsulfamoyl)-3-fluoro-4-(8-(3-(methoxymethyl)-4-methylpiperazin-1-yl)-7-methyl-5-oxo-1,3,4,5-tetrahydro-2H-chromeno[3,4-c]pyridine-3-carbonyl)benzamide]
2 | 1 to 10 | 1 to 10 | G (^ 3 to 9.0) | COC[C@H]1CN(c2cc(C)c3c4c(c(=O)oc3c2C)CN(C(=O)c2ccc(C(=O)NS(=O)(=O)N(C)C)c(N3CCC[C@@H]3C)c2)CC4)CCN1C [Example 103, N-(N,N-dimethylsulfamoyl)-4-(8-((R)-3-(methoxymethyl)-4-methylpiperazin-1-yl)-7,10-dimethyl-5-oxo-1,3,4,5-tetrahydro-2H-chromeno[3,4-c]pyridine-3-carbonyl)-2-((S)-2-methylpyrrolidin-1-yl)benzamide]
3 | 1 to 10 | 1 to 10 | – | COC[C@H]1CN(c2ccc3c4c(c(=O)oc3c2C)CN(C(=O)c2ccc(C(=O)NS(=O)(=O)N(C)C(C)C)c(OC3CCCC3)c2F)CC4)CCN1C [Example 58, (R)-2-(cyclopentyloxy)-3-fluoro-N-(N-isopropyl-N-methylsulfamoyl)-4-(8-(3-(methoxymethyl)-4-methylpiperazin-1-yl)-7-methyl-5-oxo-1,3,4,5-tetrahydro-2H-chromeno[3,4-c]pyridine-3-carbonyl)benzamide]
4 | 1 to 10 | 1 to 10 | F (<3) | COC[C@H]1CN(c2cc(C)c3c4c(c(=O)oc3c2C)CN(C(=O)c2ccc(C(=O)NS(=O)(=O)N(C)C)c(N3CCC3)c2)CC4)CCN1C [Example 89, (R)-2-(azetidin-1-yl)-N-(N,N-dimethylsulfamoyl)-4-(8-(3-(methoxymethyl)-4-methylpiperazin-1-yl)-7,10-dimethyl-5-oxo-1,3,4,5-tetrahydro-2H-chromeno[3,4-c]pyridine-3-carbonyl)benzamide]
5 | 1 to 10 | 10 to 100 | F (<3) | COC[C@H]1CN(c2cc(C)c3c4c(c(=O)oc3c2C)CN(C(=O)c2ccc(C(=O)NS(=O)(=O)N(C)C)c(N3CC5CCC3C5)c2)CC4)CCN1C (stereo partly drawn) [Example 116, 2-(2-azabicyclo[2.2.1]heptan-2-yl)-N-(N,N-dimethylsulfamoyl)-4-(8-((R)-3-(methoxymethyl)-4-methylpiperazin-1-yl)-7,10-dimethyl-5-oxo-1,3,4,5-tetrahydro-2H-chromeno[3,4-c]pyridine-3-carbonyl)benzamide]
6 | 100 to 1000 | 10 to 100 | H (>9.0 to 30) | COC[C@H]1CN(c2cc(Cl)c3c4c(c(=O)oc3c2C)CN(C(=O)c2cc(OC)c(C(=O)NS(=O)(=O)N(C3CC3)C3CC3)cc2F)CC4)CCN1C [Example 297, (R)-4-(10-chloro-8-(3-(methoxymethyl)-4-methylpiperazin-1-yl)-7-methyl-5-oxo-1,3,4,5-tetrahydro-2H-chromeno[3,4-c]pyridine-3-carbonyl)-N-(N,N-dicyclopropylsulfamoyl)-5-fluoro-2-methoxybenzamide]
7 | 10 to 100 | 10 to 100 | F (<3) | COC[C@H]1CN(c2ccc3c4c(c(=O)oc3c2C)CN(C(=O)c2ccc(C(=O)NS(=O)(=O)C3(C)CC3)c(OC3CCCC3)c2)CC4)CCN1C [Example 8, (R)-2-(cyclopentyloxy)-4-(8-(3-(methoxymethyl)-4-methylpiperazin-1-yl)-7-methyl-5-oxo-1,3,4,5-tetrahydro-2H-chromeno[3,4-c]pyridine-3-carbonyl)-N-((1-methylcyclopropyl)sulfonyl)benzamide]
8 | 10 to 100 | 1 to 10 | G (^ 3 to 9.0) | COC[C@H]1CN(c2cc(C)c3c4c(c(=O)oc3c2C)CN(C(=O)c2ccc(C(=O)NS(=O)(=O)N(C)C)c(N(C)C3CCC3)c2F)CC4)CCN1C [Example 39, (R)-2-(cyclobutyl(methyl)amino)-N-(N,N-dimethylsulfamoyl)-3-fluoro-4-(8-(3-(methoxymethyl)-4-methylpiperazin-1-yl)-7,10-dimethyl-5-oxo-1,3,4,5-tetrahydro-2H-chromeno[3,4-c]pyridine-3-carbonyl)benzamide]
9 | 1 to 10 | 10 to 100 | F (<3) | COC[C@H]1CN(c2cc(C)c3c4c(c(=O)oc3c2C)CN(C(=O)c2ccc(C(=O)NS(=O)(=O)C3(C)CC3)c(N3CCC[C@@H]3C)c2)CC4)CCN1C [Example 125, 4-(8-((R)-3-(methoxymethyl)-4-methylpiperazin-1-yl)-7,10-dimethyl-5-oxo-1,3,4,5-tetrahydro-2H-chromeno[3,4-c]pyridine-3-carbonyl)-N-((1-methylcyclopropyl)sulfonyl)-2-((S)-2-methylpyrrolidin-1-yl)benzamide]
10 | 100 to 1000 | 10 to 100 | J (>30) | COC[C@H]1CN(c2ccc3c4c(c(=O)oc3c2C)CN(C(=O)c2cc(Cl)c(C(=O)NS(=O)(=O)C3(C)CC3)c(N3CC5CC5C3)c2)CC4)CCN1C (stereo partly drawn) [Example 32, 2-(3-azabicyclo[3.1.0]hexan-3-yl)-6-chloro-4-(8-((R)-3-(methoxymethyl)-4-methylpiperazin-1-yl)-7-methyl-5-oxo-1,3,4,5-tetrahydro-2H-chromeno[3,4-c]pyridine-3-carbonyl)-N-((1-methylcyclopropyl)sulfonyl)benzamide]
11 | 10 to 100 | 1 to 10 | G (^ 3 to 9.0) | COC[C@H]1CN(c2cc(C)c3c4c(c(=O)oc3c2C)CN(C(=O)c2ccc(C(=O)NS(=O)(=O)C3(C)CC3)c(N(C)C3CCC3)c2F)CC4)CCN1C [Example 38, (R)-2-(cyclobutyl(methyl)amino)-3-fluoro-4-(8-(3-(methoxymethyl)-4-methylpiperazin-1-yl)-7,10-dimethyl-5-oxo-1,3,4,5-tetrahydro-2H-chromeno[3,4-c]pyridine-3-carbonyl)-N-((1-methylcyclopropyl)sulfonyl)benzamide]
12 | 100 to 1000 | 10 to 100 | H (>9.0 to 30) | COC[C@H]1CN(c2cc(C)c3c4c(c(=O)oc3c2C)CN(C(=O)c2ccc(C(=O)NS(=O)(=O)N3CCC(F)CC3)c(OC)c2F)CC4)CCN1C [Example 240]

Row | SMILES | IC50 [1] [nM] | IC50 [2] [nM] | MTHFD1/MTHFD2 IC50 ratio [2]
13 | CCOc1c(C(=O)NS(=O)(=O)N2C3CCC2CC3)ccc(C(=O)N2CCc3c(c(=O)oc4c(Cl)c(N5CCN(C)[C@@H](COC)C5)ccc34)C2)c1F [Example 209, (R)-N-((7-azabicyclo[2.2.1]heptan-7-yl)sulfonyl)-4-(7-chloro-8-(3-(methoxymethyl)-4-methylpiperazin-1-yl)-5-oxo-1,3,4,5-tetrahydro-2H-chromeno[3,4-c]pyridine-3-carbonyl)-2-ethoxy-3-fluorobenzamide] | 10 to 100 | 10 to 100 | F (<3)
14 | COC[C@H]1CN(c2ccc3c4c(c(=O)oc3c2)CN(C(=O)c2ccc(C(=O)NS(=O)(=O)N3CCCC3)c(OC3CCC3)c2F)CC4)CCN1C [Example 182, (R)-2-cyclobutoxy-3-fluoro-4-(8-(3-(methoxymethyl)-4-methylpiperazin-1-yl)-5-oxo-1,3,4,5-tetrahydro-2H-chromeno[3,4-c]pyridine-3-carbonyl)-N-(pyrrolidin-1-ylsulfonyl)benzamide] | 1000 to 5000 | 100 to 1000 | G (^ 3 to 9.0)
15 | CCOc1c(C(=O)NS(=O)(=O)N2C3CCCC2CC3)ccc(C(=O)N2CCc3c(c(=O)oc4c(C)c(N5CCN(C)[C@@H](COC)C5)cc(C)c34)C2)c1F [Example 234] | 10 to 100 | 10 to 100 | F (<3)
16 | COC[C@@H]1CN(c2ccc3c4c(c(=O)oc3c2C)CN(C(=O)c2ccc(C(=O)NS(=O)(=O)N3CCCC3)c(OC3CCC3)c2F)CC4)CCN1C [Example 162, (S)-2-cyclobutoxy-3-fluoro-4-(8-(3-(methoxymethyl)-4-methylpiperazin-1-yl)-7-methyl-5-oxo-1,3,4,5-tetrahydro-2H-chromeno[3,4-c]pyridine-3-carbonyl)-N-(pyrrolidin-1-ylsulfonyl)benzamide] | 100 to 1000 | 100 to 1000 | F (<3)
17 | COC[C@H]1CN(c2ccc3c4c(c(=O)oc3c2C)CN(C(=O)c2ccc(C(=O)NS(=O)(=O)C3(C)CC3)c(OC3CCC3)c2)CC4)CCN1C [Example 7, (R)-2-cyclobutoxy-4-(8-(3-(methoxymethyl)-4-methylpiperazin-1-yl)-7-methyl-5-oxo-1,3,4,5-tetrahydro-2H-chromeno[3,4-c]pyridine-3-carbonyl)-N-((1-methylcyclopropyl)sulfonyl)benzamide] | 10 to 100 | 10 to 100 | F (<3)
